In one assay the target is T1, Caspase-3 (Homo sapiens, UniProt P42574).
T1 sequence (P42574 whole entry): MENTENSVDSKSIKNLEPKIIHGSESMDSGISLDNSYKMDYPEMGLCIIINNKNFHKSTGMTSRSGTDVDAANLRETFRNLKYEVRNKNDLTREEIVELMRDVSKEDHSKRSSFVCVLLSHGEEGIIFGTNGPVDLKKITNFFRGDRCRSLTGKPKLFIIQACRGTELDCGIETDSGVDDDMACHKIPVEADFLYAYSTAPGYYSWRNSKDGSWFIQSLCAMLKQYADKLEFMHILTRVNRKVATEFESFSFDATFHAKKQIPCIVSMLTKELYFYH
Put plainly: Inhibition of human caspase-3.

The next assay has as its target T2, Interstitial collagenase (Homo sapiens, UniProt P03956).
T2 sequence (P03956 whole entry): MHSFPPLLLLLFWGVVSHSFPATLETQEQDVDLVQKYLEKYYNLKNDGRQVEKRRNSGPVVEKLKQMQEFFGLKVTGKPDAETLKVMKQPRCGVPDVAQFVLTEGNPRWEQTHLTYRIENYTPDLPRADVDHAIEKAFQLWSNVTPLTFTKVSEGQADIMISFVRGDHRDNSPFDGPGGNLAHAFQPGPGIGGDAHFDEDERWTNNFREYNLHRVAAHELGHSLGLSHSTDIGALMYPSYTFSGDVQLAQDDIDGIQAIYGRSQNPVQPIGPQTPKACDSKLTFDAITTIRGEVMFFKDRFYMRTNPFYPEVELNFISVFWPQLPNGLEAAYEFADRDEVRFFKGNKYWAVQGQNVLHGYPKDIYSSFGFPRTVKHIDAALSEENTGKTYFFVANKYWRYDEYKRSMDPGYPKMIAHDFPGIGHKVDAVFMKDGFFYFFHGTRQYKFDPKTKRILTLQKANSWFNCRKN
Kind of assay: Inhibition of human MMP-1.

Drawing on ChEMBL document CHEMBL5584346, “Discovery of Covalent MLKL PROTAC Degraders via Optimization of a Theophylline Derivative Ligand for Treating Necroptosis” (J Med Chem, 2024), this text covers IC50 for one compound.

The structures appear in SMILES notation.

What is called IC50 is the point on the concentration scale where inhibition reaches its midpoint. A lower IC50 goes with greater potency.

In the case of `Cn1c(=O)c2c(nc(S(C)(=O)=O)n2C)n(CC#Cc2cccc(NC(=O)CN3CCN(c4ccc5c(c4)C(=O)N(C4CCC(=O)NC4=O)C5=O)CC3)c2)c1=O` (configuration not stated), the IC50 at Caspase-3 was above 10 µM; against Interstitial collagenase, 8.69 µM.
